The values below come from patent US6960566B1, “Compositions and methods for treatment of cancer” (The Wister Institute of Anatomy and Biology, priority 1998, dated 2005).

“Also recorded” adds a separate entry of the source.

In assay [1] the test system is BR55-2. The assay can be described thus: ELISA, binding of MAb BR55-2 to monovalent peptide. To be noted: series of ELISA assays. The text has this: The Trp residue occupies a volume associated with the Fuca 1,3 moiety, and the Leu residue occupies the volume of the β Gal moiety and has the hydrophobic interaction of β Gal. The Tyr residue occupies a position not associated with LeY binding to B3. The computer modeling disclosed that the low energy binding mode conformation adopts a turn region similar to that observed for the YPY motif in binding to ConA [Kaur et al., 1997, J. Biol. Chem. 272:5539-5543]. This conformation lends itself to the Tyr residue of the peptide to potentially interact with several residues in CDR2 of the heavy chain of B3 that include Asp H53, Ser H52, Ser H55, or Ser H56.

The test system of another assay is BR15-6A MAb. The assay can be described thus: ELISA, binding of MAb BR15-6A to solid phase coated peptide. To be noted: solid phase coated peptide at 1 nM to 1 mM. As for the experimental part:
Peptide SEQ ID NO: 99 from the family of LeY-mimicking peptides was selected because it contained a consensus motif which appeared in multiple bacterial isolates after five rounds of panning with the BR15-6A MAb. This peptide was chemically synthesized and its binding to BR15-6A MAb was evaluated. […] It likely represents a conformational mimic of the LeY structure. This peptide is further evaluated in competition assays with native LeY containing neoglycoprotein and LeY-specific MAbs BR15-6A and BR55-2.
A general note: ELISA stands for enzyme-linked immunosorbent assay.

Another assay relates to MAb BR15-6A. The experiment in a line: Inhibition of MAb BR15-6A binding to LeY carbohydrate. As for the experimental part:
(§1) The peptide competition/inhibition assays referred to throughout the following examples are performed as follows: Test peptides at concentrations ranging from 10 nM to 1 mM were preincubated with 100 μl of the MAb NS19-9 (5 μg/ml) diluted in 10% […] free horse serum/PBS at room temperature. Fifty μl of preincubated inhibition complex antibody-peptide is added to each well of 96-well plate and incubated at 30-37° C. for 1 hour. […] The developed blue color was read at 450 nm after stopping the reaction with 100 μl 1M phosphoric acid. Fifty % inhibitory concentration (IC50) was calculated by non-linear least-squares regression to a four-parameter logistic equation. […]
Peptide SEQ ID NO: 99 from the family of LeY-mimicking peptides was selected because it contained a consensus motif which appeared in multiple bacterial isolates after five rounds of panning with the BR15-6A MAb. This peptide was chemically synthesized and its binding to BR15-6A MAb was evaluated. […] This peptide is further evaluated in competition assays with native LeY containing neoglycoprotein and LeY-specific MAbs BR15-6A and BR55-2.

Assay [2] deals with MAb NS19-9. The assay can be described thus: ELISA, direct binding of MAb NS19-9 to peptide.
Assay [3] deals with neutrophil influx into chemically irritated peritoneum. The experiment in a line: Neutrophil recruitment in Zymosan-induced peritonitis (acute inflammation model in vivo). To be noted: mice, Zymosan i.p. As for the experimental part:
The accumulation of neutrophils is a characteristic feature of acute and chronic inflammatory disease, and early steps in the recruitment of these cells to the site of inflammation depends upon E-selectin-mediated interaction. Thus, inhibition of neutrophil recruitment in vivo is an important test of the ability of potential therapeutic agents to inhibit E-selectin-mediated events. […] Because SA-Le^a binds to E-selectin, the adhesion-blocking ability of an SA-Le^a peptido-mimetic was measured in a neutrophil-recruitment in vivo model of acute inflammation.
The bioactivity of the 12-mer peptide SEQ ID NO: 1 which mimics the SA-Le^a carbohydrate structure was determined by administering Zymosan™ intraperitoneally (i.p.) into mice [see, e.g., Martens et al. 1995, J. Biol. Chem. 270:21129-21136; Rao et al. 1994, J. Biol. Chem. 269:19663-19666], followed three hours later by an intravenous (i.v.) injection of peptide SEQ ID NO: 1 (1 mg). Neutrophils were harvested and counted one hour later.
Derm. 78:206-209]. […] The reduction in enzyme activity is apparently due to reduction in neutrophil recruitment in mice treated with peptide mimicking E-selectin ligand SA-Le^a. This peptide inhibits E-selectin function in vivo.

In assay [4] the test system is MAb NS19-9. The assay can be described thus: Competition ELISA: peptide inhibition of MAb NS19-9 binding to solid phase SA-Le^a-PAA. As for the experimental part: as §1, with “hour. After 1 hour of incubation, MAb/peptide complex mixtures were transferred to wells precoated with a constant amount of neoglycoprotein containing coupled multivalent carbohydrate determinant (SA-Le^a-polyacrylamide matrix (SA-LeX-PAA or LeY-PAA) (5 μg/well) and allowed to bind for 1 hour followed by blocking with 10% γ-globulin-free horse serum for 2 hours at room temperature. Wells were washed with 100 μl PBS four times. Goat anti-mouse immunoglobulin G conjugated to horse radish peroxidase (Boehringer-Manheim, Indianapolis, Ind.) was diluted 1000-fold with 10% γ-globulin free horse serum/PBS and 100 μl was added in each well and incubated at 30-37° C. for 1 hour and washed with 100 μl PBS five times.” for “hour.”

For assay [5], the system named is BR55-2. The assay can be described thus: Competition of peptide with LeY for BR55-2 binding.
The target of assay [6] is MAb NS19-9. The assay can be described thus: competition ELISA; peptide preincubated with MAb NS19-9, free MAb binding to SA-Le^a-PAA.

For “APWLYGPA (peptido-mimetic of a Lewis antigen) [SEQ ID NO: 121]”, in the assay with BR55-2 [1], the “binding of BR55-2 to monovalent peptide (in words)” value was “does not bind”.

With “DEVRPDLISTEE (peptido-mimetic of a Lewis antigen) [SEQ ID NO: 99]”, in the assay with BR15-6A MAb, the “binding of MAb BR15-6A to peptide (in words)” value is reported as “Dose-dependent binding”. Also, the “inhibition of MAb BR15-6A binding to LeY (in words)” value in the assay with MAb BR15-6A is listed as “inhibit MAb BR15-6A binding”.

For the molecule DLWDWVVGKPAG [SEQ ID NO: 1], in the assay with MAb NS19-9 [2], the “binding of MAb NS19-9 to peptide (in words)” value is given as “dose-dependent binding”. The “myeloperoxidase activity in collected cells (in words)” value in assay [3] (1 mg peptide i.v.) was “Significant reduction of enzymatic activity”. The “number of neutrophils in peritoneal lavage fluids (in words)” value in assay [3] (1 mg peptide i.v. three hours later, harvest one hour later) was “reduced the number of neutrophils; also recorded: reduction of neutrophil influx; also recorded: partially inhibit neutrophil recruitment”. Besides, the “blocking of MAb NS19-9 binding to SA-Le^a-PAA (in words)” value in the assay with MAb NS19-9 [4] is on record as “blocked the binding of MAb NS 19-9”. The IC50 – broadly, the concentration at which inhibition is half-maximal – at MAb NS19-9 [4] (MAb NS19-9 5 μg/ml, solid phase SA-Le^a-PAA, read-out: IC50, blocking of MAb NS19-9 binding to SA-Le^a-PAA) came to 700 µM.

As for “FSLLW (peptido-mimetic of a Lewis antigen) [SEQ ID NO: 114]”, in the assay on BR55-2 [5], the “competition with LeY for BR55-2 binding (in words)” value is given as “competes with LeY for BR55-2 binding”.

For DLWDWVVGKPAG [peptide …], in the assay with MAb NS19-9 [6], the IC50 turned out to be 700 µM.
